PubChem BioAssay (NCI)
Values joined by “and” are separate entries in the source; they are usually repeats but may differ in a detail not shown here. Equal entries are not always repeated.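 Exposure lasted 48 hours, with cells grown in 96-well plates and compounds tested at five concentrations. GI50: concentration for 50% inhibition of growth. TGI: concentration producing complete growth inhibition.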

Legend:
Experiment in all cases: NCI tumour cell line growth inhibition, 48 h
KM20L2 colon = tested on: KM20L2 colon
KM12 colon = tested on: KM12 colon
HT29 colon = tested on: HT29 colon
HCC-2998 colon = tested on: HCC-2998 colon
SK-MEL-5 melanoma = tested on: SK-MEL-5 melanoma
NCI-H23 lung = tested on: NCI-H23 lung
SK-MEL-2 melanoma = tested on: SK-MEL-2 melanoma
HL-60(TB) leukemia = tested on: HL-60(TB) leukemia
COLO 205 colon = tested on: COLO 205 colon
UACC-62 melanoma = tested on: UACC-62 melanoma
LXFL 529 NSCLC = tested on: LXFL 529 NSCLC
M14 melanoma = tested on: M14 melanoma
HOP-62 NSCLC = tested on: HOP-62 NSCLC
UACC-257 melanoma = tested on: UACC-257 melanoma
OVCAR-5 ovarian = tested on: OVCAR-5 ovarian
SF-268 CNS = tested on: SF-268 CNS
DMS 273 small cell lung = tested on: DMS 273 small cell lung
HCT-15 colon = tested on: HCT-15 colon
SW-620 colon = tested on: SW-620 colon
NCI-H460 lung = tested on: NCI-H460 lung
SNB-19 CNS = tested on: SNB-19 CNS
OVCAR-4 ovarian = tested on: OVCAR-4 ovarian
LOX IMVI melanoma = tested on: LOX IMVI melanoma
RXF 393 renal = tested on: RXF 393 renal
UO-31 renal = tested on: UO-31 renal
CAKI-1 renal = tested on: CAKI-1 renal
MALME-3M melanoma = tested on: MALME-3M melanoma
SN12C renal = tested on: SN12C renal
TK-10 renal = tested on: TK-10 renal
IGROV1 ovarian = tested on: IGROV1 ovarian
CCRF-CEM leukemia = tested on: CCRF-CEM leukemia
SF-295 CNS = tested on: SF-295 CNS
HCT-116 colon = tested on: HCT-116 colon
786-0 renal = tested on: 786-0 renal
DLD-1 colon = tested on: DLD-1 colon
U251 CNS = tested on: U251 CNS
A549 NSCLC = tested on: A549 NSCLC
A498 renal = tested on: A498 renal
SF-539 CNS = tested on: SF-539 CNS
SK-MEL-28 melanoma = tested on: SK-MEL-28 melanoma
DMS 114 small cell lung = tested on: DMS 114 small cell lung
SK-OV-3 ovarian = tested on: SK-OV-3 ovarian
K-562 leukemia = tested on: K-562 leukemia
EKVX NSCLC = tested on: EKVX NSCLC
SNB-78 CNS = tested on: SNB-78 CNS
ACHN renal = tested on: ACHN renal
HOP-92 NSCLC = tested on: HOP-92 NSCLC
M19-MEL melanoma = tested on: M19-MEL melanoma
RPMI-8226 leukemia = tested on: RPMI-8226 leukemia
SNB-75 CNS = tested on: SNB-75 CNS
MOLT-4 leukemia = tested on: MOLT-4 leukemia
NCI-H226 lung = tested on: NCI-H226 lung
OVCAR-8 ovarian = tested on: OVCAR-8 ovarian
HOP-18 NSCLC = tested on: HOP-18 NSCLC
OVCAR-3 ovarian = tested on: OVCAR-3 ovarian
NCI-H522 lung = tested on: NCI-H522 lung
BT-549 breast = tested on: BT-549 breast
HS 578T breast = tested on: HS 578T breast
T-47D breast = tested on: T-47D breast
MDA-MB-231 breast = tested on: MDA-MB-231 breast
DU-145 prostate = tested on: DU-145 prostate
MDA-MB-435 = tested on: MDA-MB-435
MCF7 breast = tested on: MCF7 breast
MDA-N = tested on: MDA-N
NCI/ADR-RES ovarian = tested on: NCI/ADR-RES ovarian
SR leukemia = tested on: SR leukemia
PC-3 prostate = tested on: PC-3 prostate

## N#CCC(=O)N1CCCCCCC1
KM20L2 colon
  TGI: > 100 µM
KM12 colon
  TGI: > 100 µM
HT29 colon
  TGI: > 100 µM
HCC-2998 colon
  TGI: > 100000 nM
SK-MEL-5 melanoma
  TGI: > 100 µM
NCI-H23 lung
  TGI: > 100 µM
SK-MEL-2 melanoma
  TGI: > 100 µM
HL-60(TB) leukemia
  TGI: 78 µM
COLO 205 colon
  TGI: 28.9 µM
UACC-62 melanoma
  TGI: > 100 µM
LXFL 529 NSCLC
  TGI: > 100 µM
M14 melanoma
  TGI: > 100 µM
HOP-62 NSCLC
  TGI: > 100 µM
UACC-257 melanoma
  TGI: > 100 µM
OVCAR-5 ovarian
  TGI: > 100 µM
SF-268 CNS
  TGI: > 100 µM
DMS 273 small cell lung
  TGI: > 100 µM
HCT-15 colon
  TGI: 30.5 µM
SW-620 colon
  TGI: 21.3 µM
NCI-H460 lung
  TGI: > 100 µM
SNB-19 CNS
  TGI: > 100 µM
OVCAR-4 ovarian
  TGI: > 100 µM
LOX IMVI melanoma
  TGI: > 100 µM
RXF 393 renal
  TGI: > 100 µM
UO-31 renal
  TGI: > 100 µM
CAKI-1 renal
  TGI: > 100 µM
MALME-3M melanoma
  TGI: > 100 µM
SN12C renal
  TGI: > 100 µM
TK-10 renal
  TGI: > 100 µM
IGROV1 ovarian
  TGI: > 100 µM
CCRF-CEM leukemia
  TGI: > 100 µM
SF-295 CNS
  TGI: > 100 µM
HCT-116 colon
  TGI: > 100 µM
786-0 renal
  TGI: > 100 µM
DLD-1 colon
  TGI: > 100 µM
U251 CNS
  TGI: > 100 µM
A549 NSCLC
  TGI: > 100 µM
A498 renal
  TGI: > 100 µM
SF-539 CNS
  TGI: > 100 µM
SK-MEL-28 melanoma
  TGI: > 100 µM
DMS 114 small cell lung
  TGI: 91.7 µM
SK-OV-3 ovarian
  TGI: > 100 µM
K-562 leukemia
  TGI: > 100 µM
EKVX NSCLC
  TGI: > 100 µM
SNB-78 CNS
  TGI: > 100 µM
ACHN renal
  TGI: > 100 µM

## CC(=O)[CH-]C(=O)c1ccccc1.CC(=O)[CH-]C(=O)c1ccccc1.CC[O-].O=C1c2ccccc2C(=O)c2c1ccc(O)c2[O-].[Ti+4]
KM20L2 colon
  GI50: 80.5 µM
  TGI: > 100 µM
HOP-92 NSCLC
  TGI: > 100 µM
KM12 colon
  TGI: > 100 µM
HT29 colon
  TGI: > 100 µM
M19-MEL melanoma
  TGI: 80.2 µM
HCC-2998 colon
  TGI: > 100000 nM
SK-MEL-5 melanoma
  GI50: 30.4 µM
  TGI: > 100 µM
RPMI-8226 leukemia
  TGI: 64.7 µM
NCI-H23 lung
  TGI: > 100 µM
SK-MEL-2 melanoma
  TGI: > 100 µM
HL-60(TB) leukemia
  GI50: 19.6 µM
  TGI: 56.6 µM
COLO 205 colon
  TGI: > 100 µM
UACC-62 melanoma
  TGI: > 100 µM
SNB-75 CNS
  TGI: > 100 µM
LXFL 529 NSCLC
  TGI: > 100 µM
M14 melanoma
  TGI: > 100 µM
HOP-62 NSCLC
  TGI: > 100 µM
UACC-257 melanoma
  TGI: > 100 µM
OVCAR-5 ovarian
  TGI: > 100 µM
SF-268 CNS
  TGI: > 100 µM
DMS 273 small cell lung
  TGI: > 100 µM
HCT-15 colon
  TGI: > 100 µM
SW-620 colon
  TGI: > 100 µM
NCI-H460 lung
  TGI: > 100 µM
SNB-19 CNS
  TGI: > 100 µM
MOLT-4 leukemia
  TGI: 61.2 µM
OVCAR-4 ovarian
  TGI: > 100 µM
LOX IMVI melanoma
  TGI: > 100 µM
UO-31 renal
  TGI: 86.9 µM
CAKI-1 renal
  TGI: > 100 µM
MALME-3M melanoma
  GI50: 25.6 µM
  TGI: 61 µM
NCI-H226 lung
  TGI: > 100 µM
SN12C renal
  TGI: > 100 µM
OVCAR-8 ovarian
  TGI: > 100 µM
IGROV1 ovarian
  TGI: > 100 µM
CCRF-CEM leukemia
  TGI: 56.6 µM
SF-295 CNS
  TGI: > 100 µM
HOP-18 NSCLC
  GI50: 23.1 µM
  TGI: 88.3 µM
HCT-116 colon
  TGI: > 100 µM
786-0 renal
  TGI: > 100 µM
OVCAR-3 ovarian
  TGI: > 100 µM
DLD-1 colon
  TGI: > 100 µM
U251 CNS
  TGI: > 100 µM
A549 NSCLC
  TGI: > 100 µM
A498 renal
  TGI: 83.5 µM
SF-539 CNS
  TGI: > 100 µM
SK-MEL-28 melanoma
  TGI: > 100 µM
SK-OV-3 ovarian
  GI50: 52.5 µM
  TGI: > 100 µM
K-562 leukemia
  TGI: > 100 µM
EKVX NSCLC
  TGI: 83.2 µM
ACHN renal
  TGI: > 100 µM
NCI-H522 lung
  TGI: 60.3 µM

## COc1ccc(/C=C\c2cc(OC)c(OC)c(OC)c2)cc1O
KM20L2 colon
  TGI: 8.28 µM and 16.2 µM
HT29 colon
  GI50: 664 nM
  TGI: 9.28 µM and > 44.9 µM
BT-549 breast
  TGI: > 100 µM
HCC-2998 colon
  TGI: 1220 nM and 2380 nM
COLO 205 colon
  GI50: 2490 nM
  TGI: 43.3 µM and 22.1 µM
HS 578T breast
  TGI: 8.09 µM
OVCAR-5 ovarian
  GI50: 4.27 µM
  TGI: 78.6 µM and > 91.4 µM
OVCAR-4 ovarian
  GI50: 6.58 µM
UO-31 renal
  TGI: > 88.6 µM
CAKI-1 renal
  TGI: 13.9 µM and > 59.5 µM
TK-10 renal
  GI50: 2630 nM and 567 nM
  TGI: 4.16 µM
T-47D breast
  GI50: 48 µM
  TGI: 91.2 µM
HOP-18 NSCLC
  TGI: > 100 µM
786-0 renal
  TGI: 25.5 µM
SK-MEL-28 melanoma
  GI50: 3.16 µM
SK-OV-3 ovarian
  TGI: < 0.031 µM
EKVX NSCLC
  TGI: 82.1 µM
SNB-78 CNS
  GI50: 4.09 nM and < 1 nM
  TGI: > 100 µM

## Cc1cn(S(=O)(=O)c2ccccc2)c2c(OCc3ccccc3)cc(NS(C)(=O)=O)cc12
MDA-MB-231 breast
  TGI: 32.8 µM
HOP-92 NSCLC
  TGI: > 89.8 µM
DU-145 prostate
  TGI: > 100 µM
KM12 colon
  TGI: > 100 µM
HT29 colon
  TGI: 17.2 µM
MDA-MB-435
  TGI: > 100 µM
BT-549 breast
  TGI: > 100 µM
MCF7 breast
  TGI: 27.3 µM
HCC-2998 colon
  TGI: > 100000 nM
SK-MEL-5 melanoma
  TGI: 16.6 µM
RPMI-8226 leukemia
  TGI: > 63.7 µM
NCI-H23 lung
  TGI: > 100 µM
SK-MEL-2 melanoma
  TGI: 63.5 µM
HL-60(TB) leukemia
  TGI: > 20.6 µM
COLO 205 colon
  TGI: 77.2 µM
UACC-62 melanoma
  TGI: > 89.2 µM
SNB-75 CNS
  TGI: > 100 µM
M14 melanoma
  TGI: > 100 µM
HOP-62 NSCLC
  TGI: > 100 µM
MDA-N
  TGI: > 100 µM
NCI/ADR-RES ovarian
  TGI: > 100 µM
HS 578T breast
  TGI: > 100 µM
UACC-257 melanoma
  TGI: > 78 µM
OVCAR-5 ovarian
  TGI: > 100 µM
SF-268 CNS
  TGI: > 77.9 µM
HCT-15 colon
  TGI: > 100 µM
SW-620 colon
  TGI: > 100 µM
NCI-H460 lung
  TGI: > 100 µM
SNB-19 CNS
  TGI: > 100 µM
MOLT-4 leukemia
  TGI: > 24.8 µM
OVCAR-4 ovarian
  TGI: > 100 µM
LOX IMVI melanoma
  TGI: > 100 µM
RXF 393 renal
  TGI: > 100 µM
UO-31 renal
  TGI: > 100 µM
CAKI-1 renal
  TGI: > 100 µM
MALME-3M melanoma
  TGI: 43.7 µM
NCI-H226 lung
  TGI: > 94.4 µM
SN12C renal
  TGI: > 70.2 µM
TK-10 renal
  TGI: > 100 µM
OVCAR-8 ovarian
  TGI: > 100 µM
IGROV1 ovarian
  TGI: > 100 µM
SR leukemia
  TGI: > 100 µM
T-47D breast
  TGI: 39.4 µM
CCRF-CEM leukemia
  TGI: > 100 µM
SF-295 CNS
  TGI: > 100 µM
HCT-116 colon
  TGI: > 100 µM
786-0 renal
  TGI: > 100 µM
OVCAR-3 ovarian
  TGI: > 75.7 µM
U251 CNS
  TGI: > 65.7 µM
A549 NSCLC
  TGI: > 100 µM
A498 renal
  TGI: 50.3 µM
SF-539 CNS
  TGI: > 100 µM
PC-3 prostate
  TGI: 29 µM
SK-MEL-28 melanoma
  TGI: > 100 µM
SK-OV-3 ovarian
  TGI: > 100 µM
K-562 leukemia
  TGI: > 100 µM
EKVX NSCLC
  TGI: > 44.6 µM
ACHN renal
  TGI: > 100 µM
NCI-H522 lung
  TGI: > 75.9 µM
